Laboratory results from patent publication US10258658B2, “Compositions and methods for improved muscle metabolism” (Naturex SA, priority 2015, dated 2019).
Marks after values point to notes of the source that are not given here.

Columns and labels:
[1] = tested on: C2C12 myotubes; test: Protein synthesis (tritiated leucine incorporation) in C2C12 myotubes; assay type: cell-based, mice; details: 100 ng/mL
Experimental: For the protein synthesis assay, growing cells were harvested and plated at a density of 30 000 cells per well in a 24 well plate. Cells were grown for 48 h in 5% CO2 at 37° C. After cells reached 80% confluence, the medium was replaced with differentiating medium (DMEM+2% FBS). After 5 days, myoblasts were fused into multinucleated myotubes. Protein synthesis was determined by measuring the incorporation of the tritiated amino acid leucine. Briefly, 1 h prior leucine challenge, cells were incubated in amino acid free-medium. Then cells were incubated for 2 h30 in the presence of: radiolabelled leucine 5 μCi/mL and IGF1 100 ng/mL or plant extract in the presence of normal (0.8 mM) or low (0.08 mM) concentration of amino acids and with DMSO 0.002%
Five different preparations of Rhaponticum extract at three concentrations were incubated for 2 h30 in the presence of differentiated C2C12 myotubes and tritiated leucine (5 μCi). At the end of the incubation cells were lysed, total soluble proteins were quantified and level of tritiated leucine incorporated into cells was counted. Mean±SEM. *p<0.05; **p<0.01; ***p<0.001 vs control value.
For this study, C2C12 cells were obtained as described in EXAMPLE 12. Protein synthesis assay was performed as described in EXAMPLE 13, except that radiolabelled leucine 5 μCi/mL and IGF1 100 ng/mL, F0 extract at 1, 5 and 10 μg/ml or Rhodiola extract at 10, 104 and 417 μg/ml in the presence of normal (0.8 mM) concentration of amino acids and with DMSO 0.005% were used.
For this study, C2C12 cells were obtained as described in EXAMPLE 12. Protein synthesis assay was performed as described in EXAMPLE 13, except that radiolabelled leucine 5 μCi/mL and IGF1 100 ng/mL, F0 extract at 1 and 10 μg/ml, or Rhodiola extract at 1 and 10 μg/ml or combination of F0 with Rhodiola at different concentrations in the presence of normal (0.8 mM) concentration of amino acids and with DMSO 0.005% was used.
The C2C12 skeletal muscle cells were obtained as in EXAMPLE 12. The protein synthesis assay was performed as in EXAMPLE 13 and 14 except that radiolabelled leucine 5 μCi/mL and IGF1 100 ng/mL, F0 extract at 11.4 and 22.9 μg/ml, or F0 dry extract at 6.5 and 13 μg/ml or F1 extract at 13.4 and 26.7 μg/ml or F5′ extract at 1 and 1.9 μg/ml in the presence of normal (0.8 mM) concentration of amino acids and with DMSO 0.005%. At the end of the experiments supernatants were discarded and cells were lysed in 0.1N sodium hydroxide for 30 min. The cell soluble fraction-associated radioactivity was then counted and protein quantification was determined using the coloric Lowry method.
Each condition is tested in n=6. IGF1 100 ng/ml is used as a positive control of the protein synthesis stimulation and signaling. Results of protein synthesis are expressed in cpm/μL/2.5 hrs and in % of untreated control condition (100%).

[2] = tested on: atrogin gene expression; test: Atrogin gene expression in C2C12 myotubes (qPCR); assay type: cell-based, mice; details: positive control in this experiment
Experimental: (§1) For the gene expression assay, growing cells were harvested and plated at a density of 30 000 cells per well in a 24 well plate. Cells were grown for 48 h in 5% CO2 at 37° C. After cells reached 80% confluence, the medium was replaced with differentiating medium (DMEM+2% FBS). After 5 days, myoblasts were fused into multinucleated myotubes.
(§2) Cells were treated with F0 extract at 1 and 10 μg/ml, or Rhodiola extract at 1 and 10 μg/ml or combination of F0 with Rhodiola at different concentrations, for 6 h. At the end of the experiment, C2C12 cells were lyzed in trizol solution and RNA was extracted and purified using the phenol/chloroform method. RNA amount after extraction was quantified by spectrophotometer (260 nm/280 nm/320 nm) and suspended at a final concentration of 1 μg/1 μL. […]
Combination of Rhaponticum F0 and Rhodiola extracts at two different concentrations each were incubated for 6 h in the presence of differentiated C2C12 myotubes. At the end of the incubation cells were lysed and RNA was extracted, converted into cDNA to perform a quantitative PCR. […]

[3] = tested on: atrogin gene expression; details: 24 h incubation, 10 ng/mL; literature (Latres, Stitt); cited from earlier work
[4] = tested on: S6K1 phosphorylation on threonine 389; test: S6K1 phosphorylation on threonine 389 in C2C12 myotubes (ELISA); assay type: cell-based, mice; details: LOW AMINO ACID (0.08 mM), Step 1; 100 ng/mL; 2 h; % of untreated control
Experimental: (§3) Growing cells were harvested and plated at a density of 170 000 cells per well in a 6 well plate. Cells were grown for 48 h in 5% CO2 at 37° C. After cells reached 80% confluence, the medium was replaced with differentiating medium (DMEM+2% FBS). After 5 days, myoblasts were fused into multinucleated myotubes. 1 h before starting the experiment, cells were incubated in Krebs medium to deprived cells of amino acids.
(§4) Cells were treated with five preparations of Rhaponticum plant extract at 3 concentrations in the presence of normal (0.8 mM) or low (0.08 mM) concentration of amino acids and with DMSO 0.002% for 2 h.
(§5) At the end of the experiment, cells were lysed in cell lysate buffer (100 μL per well) and centrifuged to isolate the soluble protein in supernatant. Proteins from this cellular assay were quantified using a colorimetric assay derived from LOWRY method. Therefore, 50 μg of total protein in 100 μL lysis buffer were transferred into microwell strips coated with pS6K1 or pAkt antibody and incubated 2 h at 37° C. […] Intensity of the yellow color was readable on a spectrophotometer at 450 nm and directly proportional to pS6K1 or Akt amount detected.
Results of phosphorylated T389 S6 kinase1 is expressed in absorbance per μg of protein (Abs/μg protein) after 2 hrs incubation and in % of untreated control condition (100%). […]

[5] = tested on: myostatin gene expression; test: Myostatin gene expression in C2C12 myotubes (qPCR); assay type: cell-based, mice
Experimental: as §1, §2
FIGS. 23a, 23b, 24a, and 24b: Effect of co-incubation of Rhaponticum F0 and Rhodiola extracts on myostatin gene expression in C2C12 myotubes. […] At the end of the incubation cells were lysed and RNA was extracted, converted into cDNA to perform a quantitative PCR. […]

[6] = tested on: Akt phosphorylation on threonine 308; test: Akt phosphorylation on threonine 308 in C2C12 myotubes (ELISA); assay type: cell-based, mice; details: 100 ng/mL, 2 h
Experimental: as §3, §4, §5
Results of phosphorylated Akt is expressed in absorbance per μg of protein (Abs/μg protein) after 2 hrs incubation and in % of untreated control condition (100%). […]

[7] = tested on: C2C12 myotubes; details: low or normal concentration of amino acids; literature (Kazi, Broussard); cited from earlier work

Insulin like growth factor-1 [IGF-1]
protein synthesis ([1]; LOW AMINO ACID (0.08 mM), Step 1, 2 h30, % of untreated control): 145%**
induction of protein synthesis vs untreated control ([1]; step 1, low (0.08 mM) amino acids, DMSO 0.002%): +45%
induction of protein synthesis vs untreated control ([1]; step 1, normal (0.8 mM) amino acids, DMSO 0.002%): +21%
induction of protein synthesis vs untreated control ([1]; step 2a, normal (0.8 mM) amino acids, DMSO 0.005%): +27%
induction of protein synthesis vs untreated control ([1]; step 3, normal (0.8 mM) amino acids, DMSO 0.005%): +25%
change in atrogin gene expression vs control [2]: −59%
inhibition of atrogin gene expression [3]: around 40%
pS6K [4]: 479%**
inhibitory effect on myostatin gene expression ([5]; internal data): 20-40%
change in myostatin gene expression vs control ([5]; positive control in this experiment): −25%
Akt phosphorylation activated by a factor [6]: 1.6
increase in protein synthesis [7]: 20-50%
